US20230145835A1, “Modulators of Alpha-4-beta-7 Integrin and MAdCAM” (48HD Biopharma Inc., priority 2021, published 2023)
“And” between values parts separate entries of the source, which are not always exact repeats. Equal entries are not always repeated. Numbered stars: 1 amine (or outer) side, 2 acyl side, 3 side chain; on linkers, the order of the positions; unused ones are H or OH. Bridge positions count the residues as written; N and C are the ends. Square brackets hold non-standard residues; d marks the D form. Peptide text beside a SMILES is read from it. X3 = O=C(/C=N/OCCCCCCOc1cc(C[*:2])cc(C[*:3])c1)[*:1]; X1 = O=C(C=NOCCCCCCOc1cc(C[*:2])cc(C[*:3])c1)[*:1]; X6 = CC[C@@H](C)C(N[*:1])C(=O)[*:2]; dMet(O) = CS(=O)CC[C@@H](N)C(=O)O; Met(O) = CS(=O)CC[C@H](N)C(=O)O; Nle = CCCC[C@H](N)C(=O)O

molecular target: T1, rh-integrin α4β7/LPAM-1 (Homo sapiens, UniProt P13612+P26010); experiment: α4β7-MadCAM Competition ELISA (Example 4); assay type: binding; details: Table 3 Representative compounds; inhibition of MAdCAM binding to coated α4β7; read-out: IC50
T1 sequence (P13612 34-977 limits assumed): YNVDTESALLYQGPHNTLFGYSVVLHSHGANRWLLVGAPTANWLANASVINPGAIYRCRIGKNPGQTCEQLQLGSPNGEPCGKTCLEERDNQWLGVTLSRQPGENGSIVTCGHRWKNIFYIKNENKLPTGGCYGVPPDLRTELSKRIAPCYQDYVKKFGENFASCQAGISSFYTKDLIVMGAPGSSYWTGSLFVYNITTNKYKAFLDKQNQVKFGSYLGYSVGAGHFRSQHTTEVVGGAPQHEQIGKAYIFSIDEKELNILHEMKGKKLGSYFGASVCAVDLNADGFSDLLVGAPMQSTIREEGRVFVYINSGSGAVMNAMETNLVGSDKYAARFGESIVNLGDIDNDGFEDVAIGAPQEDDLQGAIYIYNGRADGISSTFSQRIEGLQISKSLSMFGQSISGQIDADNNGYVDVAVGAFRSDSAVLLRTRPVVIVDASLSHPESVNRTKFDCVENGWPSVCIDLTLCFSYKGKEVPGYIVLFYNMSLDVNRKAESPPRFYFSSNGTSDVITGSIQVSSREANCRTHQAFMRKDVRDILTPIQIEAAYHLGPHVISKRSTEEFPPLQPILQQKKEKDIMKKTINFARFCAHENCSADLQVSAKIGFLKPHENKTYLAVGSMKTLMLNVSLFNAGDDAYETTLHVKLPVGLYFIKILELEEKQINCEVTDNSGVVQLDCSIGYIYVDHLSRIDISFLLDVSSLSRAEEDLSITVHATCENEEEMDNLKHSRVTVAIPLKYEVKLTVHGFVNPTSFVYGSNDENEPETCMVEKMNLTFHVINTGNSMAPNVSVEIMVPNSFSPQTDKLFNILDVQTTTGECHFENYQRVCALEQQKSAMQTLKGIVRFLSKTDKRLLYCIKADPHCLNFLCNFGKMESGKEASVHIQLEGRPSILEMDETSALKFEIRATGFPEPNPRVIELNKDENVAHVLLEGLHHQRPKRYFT
T1 sequence (P26010 20-723 limits assumed): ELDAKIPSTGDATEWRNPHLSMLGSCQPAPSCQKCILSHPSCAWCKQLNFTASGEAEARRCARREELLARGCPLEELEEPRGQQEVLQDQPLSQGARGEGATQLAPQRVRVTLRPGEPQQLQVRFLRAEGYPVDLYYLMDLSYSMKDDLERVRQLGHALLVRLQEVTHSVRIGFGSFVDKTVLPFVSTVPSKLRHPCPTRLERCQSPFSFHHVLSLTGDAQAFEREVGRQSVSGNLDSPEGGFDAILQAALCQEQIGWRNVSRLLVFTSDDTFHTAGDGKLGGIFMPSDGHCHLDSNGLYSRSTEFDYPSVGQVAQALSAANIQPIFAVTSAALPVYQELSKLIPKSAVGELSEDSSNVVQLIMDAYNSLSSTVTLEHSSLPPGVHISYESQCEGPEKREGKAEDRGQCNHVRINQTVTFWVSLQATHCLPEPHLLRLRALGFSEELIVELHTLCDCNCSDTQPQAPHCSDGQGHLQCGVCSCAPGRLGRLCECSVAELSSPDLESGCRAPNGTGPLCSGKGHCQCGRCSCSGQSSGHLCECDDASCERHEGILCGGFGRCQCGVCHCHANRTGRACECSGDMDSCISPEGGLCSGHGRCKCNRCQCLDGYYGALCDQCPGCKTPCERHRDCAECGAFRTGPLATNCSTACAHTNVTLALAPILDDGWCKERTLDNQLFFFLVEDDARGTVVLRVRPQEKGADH
Method: After washing with wash buffer, 200 μL assay buffer was added to each well and incubated for one hour at 28° C. After another wash with wash buffer, 100 μL of a MAdCAM and peptide mixture in assay buffer was added to each well and incubated for one hour at 28° C., followed by washing with wash buffer.

Compound | IC50
CC[C@H](C)[C@@H]1NC(=O)[C@H](CCCNC(=N)N)NC(=O)CNC(=O)[C@H](Cc2ccc(O)cc2)NC(=O)[C@H](Cc2c[nH]c3ccccc23)NC(=O)[C@H](Cc2c[nH]cn2)NC(=O)[C@@H]2CSCc3cc(cc(c3)OCCCCCCO/N=C/C(=O)N[C@@H](CC(N)=O)C(=O)N2)CSC[C@@H](C(N)=O)NC1=O [compound 83, TSL6- SNCHWYGRIC] (NCHWYGRIC-NH2; linker N-2-9 via X3) | 63.8 µM
CSCC[C@@H]1NC(=O)[C@@H]2CCCN2C(=O)[C@@H]2CSCc3cc(cc(c3)OCCCCCCO/N=C/C(=O)N[C@@H](C)C(=O)N2)CSC[C@@H](C(N)=O)NC(=O)[C@H](CCC(=O)O)NC(=O)[C@H](CCC(N)=O)NC(=O)[C@H](Cc2c[nH]c3ccccc23)NC(=O)[C@H](C(C)C)NC(=O)[C@H](CC(=O)O)NC1=O [compound 62, TSL6- SDCHDPPKVC] (ACPMDVWQEC-NH2; linker N-2-10 via X3) | 6.42 µM
CSCC[C@@H]1NC(=O)[C@@H]2CSCc3cc(cc(c3)OCCCCCCO/N=C/C(=O)NCC(=O)N2)CSC[C@@H](C(N)=O)NC(=O)[C@H](Cc2ccccc2)NC(=O)[C@H](C)NC(=O)[C@H](Cc2ccccc2)NC(=O)[C@H](CC(=O)O)NC(=O)[C@H](CC(=O)O)NC1=O [compound 82, TSL6- SGCMDDFAFC] (GCMDDFAFC-NH2; linker N-2-9 via X3) | 59.1 µM
CC[C@H](C)[C@@H]1NC(=O)[C@H](C)NC(=O)[C@H](CCSC)NC(=O)[C@@H]2CCCN2C(=O)[C@@H]2CSCc3cc(cc(c3)OCCCCCCO/N=C/C(=O)N[C@@H](CCC(N)=O)C(=O)N2)CSC[C@@H](C(N)=O)NC(=O)[C@H]([C@@H](C)O)NC(=O)[C@@H]2CCCN2C1=O [compound 110, TSL6- SQCPMAIPTC] (QCPMAIPTC-NH2; linker N-2-9 via X3) | > 500 µM
CC(C)C[C@@H]1NC(=O)[C@H](Cc2ccccc2)NC(=O)[C@@H]2CSCc3cc(cc(c3)OCCCCCCO/N=C/C(=O)N[C@@H]([C@@H](C)O)C(=O)N2)CSC[C@@H](C(N)=O)NC(=O)[C@H](CC(N)=O)NC(=O)[C@H](CCCCN)NC(=O)[C@H](C(C)C)NC(=O)[C@H](CC(=O)O)NC1=O [compound 104, TSL6- STCFLDVKNC] (TCFLDVKNC-NH2; linker N-2-9 via X3) | 311 µM
CC(C)C[C@@H]1NC(=O)[C@@H]2CCCN2C(=O)[C@@H]2CSCc3cc(cc(c3)OCCCCCCO/N=C/C(=O)N[C@@H](CCCCN)C(=O)N2)CSC[C@@H](C(N)=O)NC(=O)[C@H](CO)NC(=O)[C@@H]2CCCN2C(=O)[C@H](C)NC(=O)[C@H](CC(=O)O)NC1=O [compound 50, TSL6- SKCPLDAPSC] (KCPLDAPSC-NH2; linker N-2-9 via X3) | 1.74 µM
CCCC[C@@H]1NC(=O)[C@@H]2CCCN2C(=O)[C@@H]2CSCc3cc(cc(c3)OCCCCCCO/N=C/C(=O)N[C@@H](CCCNC(=N)N)C(=O)N2)CSC[C@@H](C(N)=O)NC(=O)[C@H](CCC(=O)O)NC(=O)[C@H](CCC(N)=O)NC(=O)[C@H](Cc2c[nH]c3ccccc23)NC(=O)[C@H]([C@@H](C)CC)NC(=O)[C@H](CC(=O)O)NC1=O [compound 9] (RCP[Nle]DIWQEC-NH2; linker N-2-10 via X3) | 0.187 µM
C[C@@H](O)[C@@H]1NC(=O)[C@H](CC(=O)O)NC(=O)[C@@H]2CCCN2C(=O)[C@H](Cc2ccc(O)cc2)NC(=O)[C@@H]2CSCc3cc(cc(c3)OCCCCCCO/N=C/C(=O)N[C@@H](CC(=O)O)C(=O)N2)CSC[C@@H](C(N)=O)NC(=O)[C@H](Cc2cnc[nH]2)NC(=O)[C@H](Cc2ccccc2)NC1=O [compound 79, TSL6- SDCYPDTFHC] (DCYPDTFHC-NH2; linker N-2-9 via X3) | 53.5 µM
CSCC[C@@H]1NC(=O)[C@H](CC(=O)O)NC(=O)[C@H](CC(C)C)NC(=O)[C@@H]2CCCN2C(=O)[C@@H]2CSCc3cc(cc(c3)OCCCCCCO/N=C/C(=O)N[C@@H](CCCCN)C(=O)N2)CSC[C@@H](C(N)=O)NC(=O)[C@H](CCC(=O)O)NC(=O)[C@H](Cc2ccc(O)cc2)NC(=O)[C@@H]2CCCN2C1=O [compound 29, TSL6- SKCPLDMPYEC] (KCPLDMPYEC-NH2; linker N-2-10 via X3) | 0.672 µM
CC[C@H](C)[C@@H]1NC(=O)[C@H](CC(=O)O)NC(=O)[C@H](CCSC)NC(=O)[C@@H]2CCCN2C(=O)[C@@H]2CSCc3cc(cc(c3)OCCCCCCO/N=C/C(=O)N[C@@H](CCCNC(=N)N)C(=O)N2)CSC[C@@H](C(N)=O)NC(=O)[C@H](CCC(=O)O)NC(=O)[C@H](CCC(N)=O)NC(=O)[C@H](Cc2c[nH]c3ccccc23)NC1=O [compound 16] (RCPMDIWQEC-NH2; linker N-2-10 via X3) | 0.272 µM
CSCC[C@@H]1NC(=O)[C@H]([C@@H](C)O)NC(=O)[C@H](C)NC(=O)CNC(=O)[C@@H]2CSCc3cc(cc(c3)OCCCCCCO/N=C/C(=O)N[C@@H](Cc3ccccc3)C(=O)N2)CSC[C@@H](C(N)=O)NC(=O)[C@H](CCCCN)NC(=O)[C@H](CCCCN)NC1=O [compound 100, TSL6- SFCGATMKKC] (FCGATMKKC-NH2; linker N-2-9 via X3) | 162 µM
CC(C)C[C@@H]1NC(=O)[C@@H]2CCCN2C(=O)[C@@H]2CSCc3cc(cc(c3)OCCCCCCO/N=C/C(=O)N[C@@H](CCCCN)C(=O)N2)CSC[C@@H](C(N)=O)NC(=O)[C@H](CCC(=O)O)NC(=O)[C@H](Cc2ccc(O)cc2)NC(=O)[C@@H]2CCCN2C(=O)[C@H]([C@@H](C)O)NC(=O)[C@H](CC(=O)O)NC1=O [compound 22, TSL6- SKCPLDTPYEC] (KCPLDTPYEC-NH2; linker N-2-10 via X3) | 0.495 µM and 0.94 µM
C[C@@H]1NC(=O)[C@H](CC(=O)O)NC(=O)[C@@H](CC[S+](C)[O-])NC(=O)[C@@H]2CCCN2C(=O)[C@@H]2CSCc3cc(cc(c3)OCCCCCCO/N=C/C(=O)N[C@@H](CCC(N)=O)C(=O)N2)CSC[C@@H](C(N)=O)NC(=O)[C@H]([C@@H](C)O)NC(=O)[C@@H]2CCCN2C1=O (stereo partly shown) [compound 67, TSL6-SQCP{Ox-Met}DAPTC] (QCP[dMet(O)]DAPTC-NH2; linker N-2-9 via X3) | 15.7 µM
CC[C@@H](C)C1NC(=O)[C@H](Cc2ccc(O)cc2)NC(=O)[C@H](CCCNC(=N)N)NC(=O)[C@H](CCC(=O)O)NC(=O)[C@H](C)NC(=O)[C@H](CC(=O)O)NC(=O)[C@@H]2CCCN2C(=O)[C@@H]2CSCc3cc(cc(c3)OCCCCCCO/N=C/C(=O)N[C@@H](CO)C(=O)N2)CSC[C@@H](C(N)=O)NC1=O (stereo partly shown) [compound 44, TSL6- SDCPDAERYIC] (SCPDAERY[X6]C-NH2; linker N-2-10 via X3) | 1.46 µM
CC(C)C[C@@H]1NC(=O)[C@@H]2CCCN2C(=O)[C@@H]2CSCc3cc(cc(c3)OCCCCCCO/N=C/C(=O)N[C@@H](CCCCN)C(=O)N2)CSC[C@@H](C(N)=O)NC(=O)[C@H](CCC(=O)O)NC(=O)[C@H](C)NC(=O)[C@@H]2CCCN2C(=O)[C@H]([C@@H](C)O)NC(=O)[C@H](CC(=O)O)NC1=O [compound 35, TSL6- SKCPLDTPAEC] (KCPLDTPAEC-NH2; linker N-2-10 via X3) | 0.796 µM

same assay, conditions: competition ELISA, 4 μg/mL α4β7 coated, MAdCAM and peptide mixture, 28° C.; read-out: IC50

Compound | IC50
CC[C@H](C)[C@@H]1NC(=O)[C@H](C)NC(=O)[C@H](CC[S+](C)[O-])NC(=O)[C@@H]2CCCN2C(=O)[C@@H]2CSCc3cc(cc(c3)OCCCCCCON=CC(=O)N[C@@H](CCC(N)=O)C(=O)N2)CSC[C@@H](C(=O)O)NC(=O)[C@H]([C@@H](C)O)NC(=O)[C@@H]2CCCN2C1=O (stereo partly shown) [SEQ ID NO: 80] (QCP[Met(O)]AIPTC-OH; linker N-2-9 via X1) | 152 µM
